For 1 molecule, AC50 results are on record in ChEMBL document CHEMBL5291721, “A preclinical secondary pharmacology resource illuminates target-adverse drug reaction associations of marketed drugs” (Nat Commun, 2023).

The target in assay [1] is T1, Muscarinic acetylcholine receptor M5 (Homo sapiens, UniProt P08912).
T1 sequence (P08912 whole entry): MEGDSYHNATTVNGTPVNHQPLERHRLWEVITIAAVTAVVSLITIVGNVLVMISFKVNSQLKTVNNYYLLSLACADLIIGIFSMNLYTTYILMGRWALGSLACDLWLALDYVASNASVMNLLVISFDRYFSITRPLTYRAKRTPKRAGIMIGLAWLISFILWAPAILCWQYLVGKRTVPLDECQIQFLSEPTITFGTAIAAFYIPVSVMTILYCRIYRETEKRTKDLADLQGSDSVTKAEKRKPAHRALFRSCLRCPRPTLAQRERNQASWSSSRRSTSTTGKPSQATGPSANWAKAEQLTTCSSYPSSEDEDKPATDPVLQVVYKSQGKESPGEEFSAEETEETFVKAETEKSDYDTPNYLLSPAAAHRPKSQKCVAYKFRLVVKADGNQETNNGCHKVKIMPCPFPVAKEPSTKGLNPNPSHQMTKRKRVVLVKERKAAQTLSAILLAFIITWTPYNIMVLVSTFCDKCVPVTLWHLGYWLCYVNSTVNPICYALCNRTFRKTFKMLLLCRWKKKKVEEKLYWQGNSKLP

A further assay concerns the target Histamine H2 receptor (Homo sapiens, UniProt P25021).
In the next assay the target is Cannabinoid receptor 1 (Homo sapiens, UniProt P21554). The class given is functional.
Sequence of Cannabinoid receptor 1 (P21554 whole entry): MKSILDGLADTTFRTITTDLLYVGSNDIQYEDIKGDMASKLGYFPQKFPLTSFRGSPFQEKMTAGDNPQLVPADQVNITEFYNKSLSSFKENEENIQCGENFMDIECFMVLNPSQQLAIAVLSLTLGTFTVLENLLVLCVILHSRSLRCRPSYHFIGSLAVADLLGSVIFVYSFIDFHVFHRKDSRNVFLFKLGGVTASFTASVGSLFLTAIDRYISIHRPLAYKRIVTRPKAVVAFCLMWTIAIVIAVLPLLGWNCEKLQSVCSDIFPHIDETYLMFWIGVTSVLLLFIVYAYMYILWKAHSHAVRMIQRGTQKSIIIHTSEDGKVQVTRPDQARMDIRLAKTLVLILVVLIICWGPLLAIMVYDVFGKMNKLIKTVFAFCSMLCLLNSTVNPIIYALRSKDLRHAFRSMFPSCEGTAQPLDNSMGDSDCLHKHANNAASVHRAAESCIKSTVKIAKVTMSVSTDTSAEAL
Assay [2] has as its target T2, Retinoic acid receptor beta (Homo sapiens, UniProt P10826).
T2 sequence (P10826 whole entry): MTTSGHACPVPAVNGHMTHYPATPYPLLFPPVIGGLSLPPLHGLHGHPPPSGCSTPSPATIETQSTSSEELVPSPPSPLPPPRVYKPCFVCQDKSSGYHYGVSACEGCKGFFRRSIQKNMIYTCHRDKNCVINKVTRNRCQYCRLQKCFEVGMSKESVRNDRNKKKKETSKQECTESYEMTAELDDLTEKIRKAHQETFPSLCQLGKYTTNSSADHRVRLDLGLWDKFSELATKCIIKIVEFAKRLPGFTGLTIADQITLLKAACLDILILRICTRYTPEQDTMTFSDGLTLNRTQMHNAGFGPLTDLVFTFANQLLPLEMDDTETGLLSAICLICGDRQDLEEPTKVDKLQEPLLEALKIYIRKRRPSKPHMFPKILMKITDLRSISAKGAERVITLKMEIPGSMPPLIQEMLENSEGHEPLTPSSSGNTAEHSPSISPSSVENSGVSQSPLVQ
The class given is functional, cell-based.

For assay [3], the target named is 5-hydroxytryptamine receptor 7 (Homo sapiens, UniProt P34969).
Sequence of 5-hydroxytryptamine receptor 7 (P34969 whole entry): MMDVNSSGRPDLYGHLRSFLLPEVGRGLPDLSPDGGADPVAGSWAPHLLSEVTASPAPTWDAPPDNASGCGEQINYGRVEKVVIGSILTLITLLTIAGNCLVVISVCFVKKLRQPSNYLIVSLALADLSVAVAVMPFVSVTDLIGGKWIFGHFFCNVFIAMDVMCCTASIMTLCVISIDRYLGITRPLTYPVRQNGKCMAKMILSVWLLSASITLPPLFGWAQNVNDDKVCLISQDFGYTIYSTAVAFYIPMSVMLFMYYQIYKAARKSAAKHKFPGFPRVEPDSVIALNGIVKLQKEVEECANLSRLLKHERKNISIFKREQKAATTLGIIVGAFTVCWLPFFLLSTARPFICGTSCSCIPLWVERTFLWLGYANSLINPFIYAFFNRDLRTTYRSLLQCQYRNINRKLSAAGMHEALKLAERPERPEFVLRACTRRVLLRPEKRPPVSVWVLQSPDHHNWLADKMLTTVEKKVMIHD
A further assay concerns the target T3, Bile acid receptor (Homo sapiens, UniProt Q96RI1).
T3 sequence (Q96RI1 whole entry): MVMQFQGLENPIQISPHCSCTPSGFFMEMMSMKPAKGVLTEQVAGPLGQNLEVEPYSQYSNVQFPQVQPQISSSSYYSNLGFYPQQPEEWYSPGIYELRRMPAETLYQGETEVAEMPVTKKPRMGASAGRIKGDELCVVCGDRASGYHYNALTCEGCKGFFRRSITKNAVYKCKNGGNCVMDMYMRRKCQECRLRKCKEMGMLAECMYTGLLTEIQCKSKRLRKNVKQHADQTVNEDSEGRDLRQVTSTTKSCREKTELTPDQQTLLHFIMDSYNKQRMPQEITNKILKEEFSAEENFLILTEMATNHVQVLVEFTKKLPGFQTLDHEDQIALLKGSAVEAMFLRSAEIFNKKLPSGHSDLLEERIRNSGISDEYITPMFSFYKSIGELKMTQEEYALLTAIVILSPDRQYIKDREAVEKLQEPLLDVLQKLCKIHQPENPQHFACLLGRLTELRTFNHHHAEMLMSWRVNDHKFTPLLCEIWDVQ
It counts as functional.
Further: assay procedure not described here.

Sequence of Histamine H2 receptor (P25021 whole entry): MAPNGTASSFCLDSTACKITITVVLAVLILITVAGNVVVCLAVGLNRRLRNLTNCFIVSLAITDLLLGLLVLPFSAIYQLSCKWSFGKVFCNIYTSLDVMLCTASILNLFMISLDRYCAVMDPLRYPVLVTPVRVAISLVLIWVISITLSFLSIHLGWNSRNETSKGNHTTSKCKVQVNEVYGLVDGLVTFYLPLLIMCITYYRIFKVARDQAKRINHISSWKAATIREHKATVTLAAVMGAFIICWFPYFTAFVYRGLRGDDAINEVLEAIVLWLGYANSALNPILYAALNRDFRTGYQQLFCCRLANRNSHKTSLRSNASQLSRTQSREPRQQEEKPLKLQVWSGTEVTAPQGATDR

As for `CC1(C)S[C@@H]2[C@H](NC(=O)[C@H](N)c3ccc(O)cc3)C(=O)N2[C@H]1C(=O)O` [AMOXICILLIN], the AC50 in assay [1] was more than 10 µM; at Histamine H2 receptor, more than 10 µM; at Cannabinoid receptor 1, more than 10 µM; in assay [2] it was more than 30 µM; in assay [3] it was more than 10 µM; on Bile acid receptor, more than 30 µM.
